# Source: ChEMBL document CHEMBL1201862, “PubChem BioAssay data set” (2004)
#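 Assay format: 96-well plates, 48-hour exposure. GI50 is the concentration that inhibits growth by half.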 Activity calls are given as the source filed them. No stated cut-off is given here; in the data, active = GI50 up to about 1.1 µM and inactive = higher.
# Assays:
# Assay in all cases: NCI tumour cell line growth inhibition, 48 h
# [1] = tested on: NCI-H226
# [2] = tested on: KM12
# [3] = tested on: SN12C
# [4] = tested on: SNB-19
# [5] = tested on: COLO 205
# [6] = tested on: MDA-MB-231
# [7] = tested on: HOP-92
# [8] = tested on: UACC-257
# [9] = tested on: NCI-H460
# [10] = tested on: UO-31
# [11] = tested on: HL-60
# [12] = tested on: NCI/ADR-RES
# [13] = tested on: DU-145
# [14] = tested on: PC-3
# [15] = tested on: HCT-116
# [16] = tested on: IGROV-1
# [17] = tested on: HT-29
# [18] = tested on: SNB-75
# [19] = tested on: SK-MEL-5
# [20] = tested on: OVCAR-4
# [21] = tested on: MDA-N
# [22] = tested on: A498
# [23] = tested on: OVCAR-8
# [24] = tested on: SF-295
# [25] = tested on: UACC-62
# [26] = tested on: HCT-15
# [27] = tested on: Hs-578T
# [28] = tested on: T47D
# [29] = tested on: U-251
# [30] = tested on: MCF7
# [31] = tested on: SK-OV-3
# [32] = tested on: TK-10
# [33] = tested on: RPMI-8226
# [34] = tested on: CAKI-1
# [35] = tested on: MDA-MB-435
# [36] = tested on: M14
# [37] = tested on: HOP-62
# [38] = tested on: NCI-H23
# [39] = tested on: NCI-H522
# [40] = tested on: SK-MEL-2
# [41] = tested on: ACHN
# [42] = tested on: CCRF-CEM
# [43] = tested on: OVCAR-5
# [44] = tested on: HCC 2998
# [45] = tested on: MOLT-4
# [46] = tested on: K562
# [47] = tested on: EKVX
# [48] = tested on: SR
# [49] = tested on: RXF 393
# [50] = tested on: A549
# [51] = tested on: SK-MEL-28
# [52] = tested on: LOX IMVI
# [53] = tested on: Malme-3M
# [54] = tested on: SF-268
# [55] = tested on: 786-0
# [56] = tested on: SF-539
# [57] = tested on: OVCAR-3
# [58] = tested on: SW-620
smiles,measurement,setting,value
C#CC(O)/C=C/C(O)CCCC(O)CC#CC(O)C#CCCCCC(O)/C=C/CCCC(O)/C=C/CCCCCCCCCCCCCC(O)C(O)C#CC(=O)O (stereo not drawn),GI50,[1],> 25 µM (inactive)
same,GI50,[2],> 25 µM (inactive)
same,GI50,[3],> 25 µM (inactive)
same,GI50,[4],> 25 µM (inactive)
same,GI50,[5],> 25 µM (inactive)
same,GI50,[6],> 25 µM (inactive)
same,GI50,[7],> 25 µM (inactive)
same,GI50,[8],> 25 µM (inactive)
same,GI50,[9],> 25 µM (inactive)
same,GI50,[10],> 25 µM (inactive)
same,GI50,[11],> 25 µM (inactive)
same,GI50,[12],> 25 µM (inactive)
same,GI50,[13],> 25 µM (inactive)
same,GI50,[14],> 25 µM (inactive)
same,GI50,[15],> 25 µM (inactive)
same,GI50,[16],> 25 µM (inactive)
same,GI50,[17],> 25 µM (inactive)
same,GI50,[18],20 µM (inactive)
same,GI50,[19],> 25 µM (inactive)
same,GI50,[20],> 25 µM (inactive)
same,GI50,[21],> 25 µM (inactive)
same,GI50,[22],> 25 µM (inactive)
same,GI50,[23],> 25 µM (inactive)
same,GI50,[24],> 25 µM (inactive)
same,GI50,[25],> 25 µM (inactive)
same,GI50,[26],> 25 µM
same,GI50,[27],> 25 µM (inactive)
same,GI50,[28],> 25 µM (inactive)
same,GI50,[29],> 25 µM (inactive)
same,GI50,[30],> 25 µM (inactive)
same,GI50,[31],> 25 µM (inactive)
same,GI50,[32],> 25 µM (inactive)
same,GI50,[33],> 25 µM (inactive)
same,GI50,[34],> 25 µM (inactive)
same,GI50,[35],> 25 µM (inactive)
same,GI50,[36],> 25 µM (inactive)
same,GI50,[37],> 25 µM (inactive)
same,GI50,[38],> 25 µM (inactive)
same,GI50,[39],12.8 µM (inactive)
same,GI50,[40],> 25 µM (inactive)
same,GI50,[41],> 25 µM (inactive)
same,GI50,[42],> 25 µM (inactive)
same,GI50,[43],> 25 µM (inactive)
same,GI50,[44],> 25 µM (inactive)
same,GI50,[45],> 25 µM (inactive)
same,GI50,[46],> 25 µM (inactive)
same,GI50,[47],> 25 µM (inactive)
same,GI50,[48],> 25 µM (inactive)
same,GI50,[49],> 25 µM (inactive)
same,GI50,[50],> 25 µM (inactive)
same,GI50,[51],> 25 µM (inactive)
same,GI50,[52],13.9 µM (inactive)
same,GI50,[53],23.2 µM (inactive)
same,GI50,[54],> 25 µM (inactive)
same,GI50,[55],> 25 µM (inactive)
Cc1c(C)c(C)n(C2OC(CO)C(O)C(O)C2O)c(=S)c1C#N (stereo not drawn),GI50,[1],> 100 µM (inactive)
same,GI50,[2],> 100 µM (inactive)
same,GI50,[3],> 100 µM (inactive)
same,GI50,[4],> 100 µM (inactive)
same,GI50,[5],> 100 µM (inactive)
same,GI50,[6],> 100 µM (inactive)
same,GI50,[7],> 100 µM (inactive)
same,GI50,[8],> 100 µM (inactive)
same,GI50,[9],> 100 µM (inactive)
same,GI50,[10],> 100 µM (inactive)
same,GI50,[11],> 100 µM (inactive)
same,GI50,[12],> 100 µM (inactive)
same,GI50,[13],> 100 µM (inactive)
same,GI50,[14],> 100 µM (inactive)
same,GI50,[56],> 100 µM (inactive)
same,GI50,[15],> 100 µM (inactive)
same,GI50,[16],> 100 µM (inactive)
same,GI50,[17],> 100 µM (inactive)
same,GI50,[18],> 100 µM (inactive)
same,GI50,[19],> 100 µM (inactive)
same,GI50,[20],> 100 µM (inactive)
same,GI50,[21],> 100 µM (inactive)
same,GI50,[22],> 100 µM (inactive)
same,GI50,[23],> 100 µM (inactive)
same,GI50,[24],> 100 µM (inactive)
same,GI50,[25],> 100 µM (inactive)
same,GI50,[26],> 100 µM
same,GI50,[28],> 100 µM (inactive)
same,GI50,[29],> 100 µM (inactive)
same,GI50,[30],> 100 µM (inactive)
same,GI50,[31],> 100 µM (inactive)
same,GI50,[57],> 100 µM (inactive)
same,GI50,[32],> 100 µM (inactive)
same,GI50,[58],> 100 µM (inactive)
same,GI50,[35],> 100 µM (inactive)
same,GI50,[36],> 100 µM (inactive)
same,GI50,[37],> 100 µM (inactive)
same,GI50,[38],> 100 µM (inactive)
same,GI50,[39],> 100 µM (inactive)
same,GI50,[40],> 100 µM (inactive)
same,GI50,[41],> 100 µM (inactive)
same,GI50,[42],> 100 µM (inactive)
same,GI50,[43],> 100 µM (inactive)
same,GI50,[44],> 100 µM (inactive)
same,GI50,[45],> 100 µM (inactive)
same,GI50,[46],> 100 µM (inactive)
same,GI50,[47],> 100 µM (inactive)
same,GI50,[48],> 100 µM (inactive)
same,GI50,[49],> 100 µM (inactive)
same,GI50,[50],> 100 µM (inactive)
same,GI50,[51],> 100 µM (inactive)
same,GI50,[52],> 100 µM (inactive)
same,GI50,[53],> 100 µM (inactive)
same,GI50,[54],> 100 µM (inactive)
same,GI50,[55],> 100 µM (inactive)
CCc1cc(-c2nsc(=O)o2)c(S(=O)(=O)CC)s1,GI50,[1],> 100 µM (inactive)
same,GI50,[2],38.4 µM (inactive)
same,GI50,[3],> 100 µM (inactive)
same,GI50,[4],77.8 µM (inactive)
same,GI50,[5],> 100 µM (inactive)
same,GI50,[7],98.9 µM (inactive)
same,GI50,[9],> 100 µM (inactive)
same,GI50,[10],> 100 µM (inactive)
same,GI50,[11],0.951 µM (active)
same,GI50,[12],> 100 µM (inactive)
same,GI50,[13],> 100 µM (inactive)
same,GI50,[14],33.4 µM (inactive)
same,GI50,[56],> 100 µM (inactive)
same,GI50,[15],43.3 µM (inactive)
same,GI50,[16],34 µM (inactive)
same,GI50,[17],84.9 µM (inactive)
same,GI50,[18],> 100 µM (inactive)
same,GI50,[19],> 100 µM (inactive)
same,GI50,[20],> 100 µM (inactive)
same,GI50,[21],75 µM (inactive)
same,GI50,[22],> 100 µM (inactive)
same,GI50,[23],88.1 µM (inactive)
same,GI50,[24],> 100 µM (inactive)
same,GI50,[26],52.7 µM
same,GI50,[27],> 100 µM (inactive)
same,GI50,[28],76.7 µM (inactive)
same,GI50,[29],> 100 µM (inactive)
same,GI50,[30],26.7 µM (inactive)
same,GI50,[31],> 100 µM (inactive)
same,GI50,[57],> 100 µM (inactive)
same,GI50,[32],> 100 µM (inactive)
same,GI50,[33],49.4 µM (inactive)
same,GI50,[34],56.9 µM (inactive)
same,GI50,[58],61 µM (inactive)
same,GI50,[35],55.3 µM (inactive)
same,GI50,[36],76 µM (inactive)
same,GI50,[37],> 100 µM (inactive)
same,GI50,[38],45.4 µM (inactive)
same,GI50,[39],22.2 µM (inactive)
same,GI50,[40],95.5 µM (inactive)
same,GI50,[41],> 100 µM (inactive)
same,GI50,[42],32.6 µM (inactive)
same,GI50,[43],> 100 µM (inactive)
same,GI50,[44],37.2 µM (inactive)
same,GI50,[45],> 10 µM (inactive)
same,GI50,[46],37.2 µM (inactive)
same,GI50,[47],> 100 µM (inactive)
same,GI50,[48],38.3 µM (inactive)
same,GI50,[50],> 100 µM (inactive)
same,GI50,[51],49.3 µM (inactive)
same,GI50,[52],56.6 µM (inactive)
same,GI50,[54],86.9 µM (inactive)
same,GI50,[55],> 100 µM (inactive)
